# Source: patent publication EP1857556A1, “Genetically engineered Pseudomonas fluorescens strains as biosensor for trehalose detection and quantification in a sample” (INSTITUT NATIONAL DE LA RECHERCHE AGRONOMIQUE (INRA), priority 2006, dated 2007)
# What was measured:
# [1] = test system: Pyt 5; experiment: visual assessment of β-galactosidase activity (blue color intensity) on X-gal buffered CAA medium, mutant Pyt 5; assay type: cell-based, P. fluorescens ATCC 17400; set-up: β-galactosidase activities: key: -: no induction; (+): faintish induction; +: weak induction; ++: highly induction; +++: extremely strong induction
# Source text: (§1) So, Pyt 6 was chosen as a good candidate to develop the biosensor test in the further study.
# (§2) Table 1. Influence of added sugars in buffered (pH 7) CAA medium for the β-galactosidase activities of P. fluorescens ATCC 17400 derived mutants on visual assessment of blue color intensity
# [2] = test system: Pyt 6; experiment: visual assessment of β-galactosidase activity (blue color intensity) on X-gal buffered CAA medium, mutant Pyt 6; for β-galactosidase activities: key: -: no induction; (+): faintish induction; +: weak induction; ++: highly induction; +++: extremely strong induction; assay type: cell-based, P. fluorescens ATCC 17400
# Source text: as §1, §2
# [3] = test system: Pyt 6; experiment: semi-quantitative high-throughput X-Gal colorimetric trehalose assay with Pyt 6; assay type: cell-based, Pseudomonas fluorescens; details: semi-quantitative method; for visible induction: Pyt 6, sugars (2 %), X-Gal, 18 hours at 27°C
# Procedure: For instance, the Inventors have developed a semi-quantitative method of assaying trehalose in a sample. Said method comprises the steps consisting of: • a) contacting the sample with a suspension of Pyt 6, precultured to exponential growth, at OD 600 nm = about 0.1, with a ratio about 1:20 (preferably 10 µl of the sample, optionally diluted, are contacted with 190 µl of the Pyt 6 suspension atOD600nm=0.1); • b) adding about 2 µl X-Gal (20 mg/ml); • c) incubation the mixture during 16-20 hours, preferably18 hours, at 27°C (preferably with agitation at 150 rpm), • c) observing and/or measuring the blue coloration elicited by X-Gal processing; and • d) comparing the blue coloration observed in step c) with that elicited by a standard of trehalose contacted with a suspension of Pyt 6, precultured to exponential growth, at OD 600 nm = about 0.1, with a ratio 1:10 (preferably 10 µl of the standards are contacted with 190 µl of the Pyt 6 suspension at OD 600 nm = 0.1) and X-Gal (2 µl, 20 mg/ml); whereby if the blue coloration observed in step c) is above that of observed with the standard, then the concentration of trehalose in the sample is above trehalose concentration in the standard.
# From the knowledge derived from the use of the qualitative and quantitative methods, the inventors have developed a semi-quantitative method that allows a high throughput pre-screening of the presence of trehalose in liquid samples. The invention helps also to the check quickly the quality of controls without trehalose before applying the quantitative method. The semi-quantitative method combines a direct colorimetric observation with the use of the chromogenic X-Gal and the conditions of Pyt 6 culture derived from the quantitative method. The detection limit is 0.5 mM trehalose in 10 µl of the tested liquid sample (biological or other extracts).
# This method was carried out according to the following steps : • preculture of Pyt 6 to exponential growth in the BCAA medium at 27°C, • distribution of 190 µl of this Pyt 6 suspension at OD 600 nm = 0.1 in wells of a 96 well microtiter plate , • incorporation of 2 µl X-Gal (20 mg/ml) in each well, • incorporation of 10 µl of a standard range of trehalose (0.1 mM to 2 mM trehalose) or 10 µl of tested samples or 10 µl of pure water or culture medium for the blank control, • incubation during 18 hours at 150 rpm at 27°C, • comparative observation of the intensity of the blue color in wells, • the lower detection limit is 0.5 mM trehalose in the tested sample.
# [4] = effect of boiling on trehalose, read out with Pyt 6 luminescence (Figure 8); assay type: physicochemical; details: boiling of the samples, 5 min at 100°C (Figure 8)
# Procedure: The extract derived from 1 g of Ggt mycelium cultured for 7 days were tested. For the positive control, 10 ng of purified β-gal and 1 mM trehalose solution with Pyt 6 were assessed. Results shown are mean values from 3 repeated counting. Error bars indicate standard deviations.
# The fungal extraction was performed as follows. Mycelium are pre-cultured (Gaeumannomyces. graminis (Ggt): 5 days on PDA (Potato Dextrose 39 g/L, agar 20 g/L); Laccaria bicolor. (Lb) 10 days on P5 (0.25 g Di NH4 tartrate, 0.5 g KH2PO4, 0.25 g MgSO4 7 H2O, 2.5 g maltose D+, 10 g glucose D+, 0.5 ml thiamine-HCl (100 mg/L), 0.5 ml Kanieltra oligoelement solution (100 ml/L), 10 g agar, 480 ml H2O, adjusted pH to 5.5 with HCl or NaOH). Growing mycelium plugs are explanted to BCAA agar (as defined above) with cellophane membrane or the glass bead/membrane system with liquid BCAA. The cellophane membranes were previously boiled in ultra-pure water + EDTA (372 mg.l-1) during 15 minutes, washed abundantly with ultra-pure water and sterilised by autoclaving twice. […]
# Boiling of the fungal extracts is expected to denature endogenous β-gal and therefore avoid interference with trehalose measurement. […] Additionally, it was observed that when Ggt mycelium extract (diluted to 1/10) was boiled, no endogenous β-galactosidase activity was ever detected (Figure 8).
structure (smiles),measurement,setting,value
OC[C@H]1O[C@H](O[C@H]2[C@H](O)[C@@H](O)C(O)O[C@@H]2CO)[C@H](O)[C@@H](O)[C@@H]1O (mixture of isomers) [maltose],β-galactosidase activities,"[1]; Pyt 5, 0.2 % maltose added to buffered (pH 7) CAA medium",++
same,β-galactosidase activities,"[1]; Pyt 5, 0.5% maltose added to buffered (pH 7) CAA medium",++
same,treA induction,"[1]; Pyt 5, visual assessment on X-gal medium",weak induction
same,β-galactosidase activities,"[2]; Pyt 6, 0.2 % maltose added to buffered (pH 7) CAA medium",-
same,β-galactosidase activities,"[2]; Pyt 6, 0.5% maltose added to buffered (pH 7) CAA medium",-
same,treA expression,[2]; strain as received under the label Pyt 6 (storage tubes inverted),triggered
same,visible induction,[3],no visible induction
O=C[C@@H](O)[C@H](O)[C@H](O)CO [arabinose],visible induction,[3],no visible induction
O=C(CO)[C@@H](O)[C@H](O)[C@H](O)CO [fructose],visible induction,[3],no visible induction
O=C[C@H](O)[C@@H](O)[C@@H](O)[C@H](O)CO [galactose],visible induction,[3],no visible induction
OCC(O)CO [glycerol],visible induction,[3],no visible induction
"OC[C@H]1O[C@H](O[C@H]2O[C@H](CO)[C@@H](O)[C@H](O)[C@H]2O)[C@H](O)[C@@H](O)[C@@H]1O [trehalose, Trehalose]",β-galactosidase activities,"[1]; Pyt 5, 10 mM trehalose added to buffered (pH 7) CAA medium",+++
same,β-galactosidase activities,"[1]; Pyt 5, 10mM trehalose together with 0.2 % glucose",+++
same,β-galactosidase activities,"[1]; Pyt 5, 10 mM trehalose together with 0.2 % maltose",+++
same,β-galactosidase activities,"[1]; Pyt 5, 10 mM trehalose together with 0.5% maltose",+++
same,β-galactosidase activities,"[1]; Pyt 5, 10 mM trehalose together with 2 % glucose",+++
same,treA expression,[1]; strain as received under the label Pyt 5 (storage tubes inverted),specifically induced
same,β-galactosidase activities,"[2]; Pyt 6, 10 mM trehalose added to buffered (pH 7) CAA medium",+++
same,β-galactosidase activities,"[2]; Pyt 6, 10mM trehalose together with 0.2 % glucose",+++
same,β-galactosidase activities,"[2]; Pyt 6, 10 mM trehalose together with 0.2 % maltose",+++
same,β-galactosidase activities,"[2]; Pyt 6, 10 mM trehalose together with 0.5% maltose",+++
same,β-galactosidase activities,"[2]; Pyt 6, 10 mM trehalose together with 2 % glucose",+++
same,treA induction,"[2]; Pyt 6, trehalose 10^-3 M, visual assessment on X-gal medium",treA induction
same,detection limit,[3]; trehalose in 10 µl of the tested liquid sample,0.5 mM
same,stability to boiling,[4],not affected
